Patent publication US20240002416A1 (Rheinische-Friedrich-Wilhelms-Universität Bonn, priority 2020, published 2024)

Columns and labels:
human MRGPRX4-83L [1] = biological target: T1, human MRGPRX4-83L (Homo sapiens, UniProt Q96LA9); assay: β-arrestin assay (CHO β-arrestin ARMS1-ProLink 2 human MRGPRX4 83L); format: cell-based; conditions: for Emax: efficacy based on maximal effect of 100 nM B-16 (set as 100%), read-out: Emax; for EC50: β-arrestin recruitment, CHO cells, MRGPRX4-83L, read-out: EC50 ± SEM
T1 construct: host or cells: CHO β-arrestin cells
T1 sequence (Q96LA9 whole entry): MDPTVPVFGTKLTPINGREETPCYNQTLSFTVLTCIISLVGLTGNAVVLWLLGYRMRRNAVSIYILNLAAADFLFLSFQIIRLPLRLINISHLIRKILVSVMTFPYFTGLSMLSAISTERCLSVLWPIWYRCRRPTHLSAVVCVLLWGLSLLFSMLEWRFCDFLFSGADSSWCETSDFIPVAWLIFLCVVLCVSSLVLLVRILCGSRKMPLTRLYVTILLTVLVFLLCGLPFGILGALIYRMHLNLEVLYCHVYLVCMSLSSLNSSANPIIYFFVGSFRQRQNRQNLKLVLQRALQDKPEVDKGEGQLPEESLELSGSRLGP
Summary of the method: (§1)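 Recombinant CHO cells served for arrestin recruitment, detected as complemented β-galactosidase activity. For intracellular calcium, 83L was tested in recombinant astrocytes and 83S in glioblastoma LN229 cells expressing it natively.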

human MRGPRX4-83L [2] = biological target: T1, human MRGPRX4-83L; assay: Calcium assay (human MRGPRX4 83L), recombinant astrocytes; format: cell-based; conditions: for EC50: calcium mobilization, MRGPRX4-83L, read-out: EC50 ± SEM; for Emax: efficacy based on maximal effect of 1 μM B-16 (set as 100%), read-out: Emax
Summary of the method: as §1

MRGPRX4-83S [3] = biological target: T2, MRGPRX4-83S (Homo sapiens, UniProt Q96LA9, L83S); assay: β-arrestin assay (CHO β-arrestin human MRGPRX4-83S); format: cell-based; set-up: host or cells: CHO β-arrestin cells; conditions: for Emax: efficacy based on 100 nM B-16 (set as 100%), read-out: Emax; for EC50: β-arrestin recruitment, CHO cells, MRGPRX4-83S, read-out: EC50 ± SEM
T2 sequence (Q96LA9 whole entry L83S): as the sequence (Q96LA9 whole entry) above, with L83S counted along it
Summary of the method: as §1

MRGPRX4-83S [4] = biological target: T2, MRGPRX4-83S; assay: Calcium assay (human glioblastoma LN229 cells expressing the MRGPRX4-83S); format: cell-based; set-up: LN229 glioblastoma cells natively expressing the MRGPRX4-83S; endogenous in cells; host or cells: LN229 human glioblastoma cells; conditions: for Emax: LN-229, efficacy based on 30 μM H-1 (set as 100%), read-out: Emax; for EC50: calcium mobilization, LN229 cells, MRGPRX4-83S, read-out: EC50 ± SEM
Summary of the method: as §1

[5] = Table 1, means of 3-4 experiments

SMILES | Emax (human MRGPRX4-83L [1]; Table 1) [%] | EC50 (human MRGPRX4-83L [1]; [5]) [nM] | EC50 (human MRGPRX4-83L [2]; Table 1) [nM] | Emax (human MRGPRX4-83L [2]; Table 1) [%] | melting point [°C] | Emax (MRGPRX4-83S [3]; Table 2) [%] | EC50 (MRGPRX4-83S [3]; Table 2) [nM] | Emax (MRGPRX4-83S [4]; Table 2) [%] | EC50 (MRGPRX4-83S [4]; Table 2) [nM] | value in brackets beside IC50 >10 (human MRGPRX4-83L [1]; Table 1, bracketed value ± spread in IC50 column, not defined, inhibition of 2.6 μM B-16) | IC50 (human MRGPRX4-83L [1]; Table 1, inhibition of the effect of 2.6 μM B-16) [nM] | Emax (human MRGPRX4-83L [1]; Table 4) [%] | EC50 (human MRGPRX4-83L [1]; Table 4) [nM] | EC50 (human MRGPRX4-83L [2]; Table 4) [nM] | Emax (human MRGPRX4-83L [2]; Table 4) [%] | Emax (MRGPRX4-83S [3]; Table 3) [%] | EC50 (MRGPRX4-83S [3]; Table 3) [nM] | Emax (MRGPRX4-83S [4]; Table 3) [%] | EC50 (MRGPRX4-83S [4]; Table 3) [nM] | IC50 (MRGPRX4-83S [4]) [nM]
C#CCn1c(=O)c2[nH]c(CCc3cccc(F)c3)nc2n(CCCCP(=O)(O)O)c1=O [B-3, (4-(8-(3-Fluorophenethyl)-2,6-dioxo-1-(prop-2-yn-1-yl)-1,2,6,7-tetrahydro-3H-purin-3-yl)butyl)phosphonic acid] | 89 | 7940 ± 1450 | 601 ± 103 | 110 | 154 to 156 | 93 | 33.9 ± 5.1 | 118 | 63.1 ± 18.6 |  |  |  |  |  |  |  |  |  |  | 
C#CCn1c(=O)c2[nH]c(CCc3cccc(C)c3)nc2n(CCCCP(=O)(O)O)c1=O [B-5, (4-(8-(3-Methylphenethyl)-2,6-dioxo-1-(prop-2-yn-1-yl)-1,2,6,7-tetrahydro-3H-purin-3-yl)butyl)phosphonic acid] | 99 | 15200 ± 520 | 492 ± 38 | 91 | 244 to 246 | 103 | 34.3 ± 7.6 | 96 | 18.1 ± 1.5 |  |  |  |  |  |  |  |  |  |  | 
C#CCn1c(=O)c2[nH]c(CCc3cccc(C(F)(F)F)c3)nc2n(CCCCP(=O)(O)O)c1=O [B-6, (4-(2,6-Dioxo-1-(prop-2-yn-1-yl)-8-(3-(trifluoromethyl)phenethyl)-1,2,6,7-tetrahydro-3H-purin-3-yl)butyl)phosphonic acid] | 114 | 11900 ± 1800 | 267 ± 66 | 99 | 223 to 226 | 100 | 20.5 ± 2.4 | 150 | 38.2 ± 10.9 |  |  |  |  |  |  |  |  |  |  | 
C#CCn1c(=O)c2[nH]c(CCc3ccc(OC)cc3OC)nc2n(CCCCP(=O)(O)O)c1=O [B-10, (4-(8-(2,4-Dimethoxyphenethyl)-2,6-dioxo-1-(prop-2-yn-1-yl)-1,2,6,7-tetrahydro-3H-purin-3-yl)butyl)phosphonic acid] | 100 | 14500 ± 2400 | 425 ± 187 | 113 | 255 to 257 | 87 | 71.4 ± 19.3 | 82 | 30.6 ± 3.1 |  |  |  |  |  |  |  |  |  |  | 
CCn1c(=O)c2[nH]c(CCc3ccc(F)cc3)nc2n(CCCCP(=O)(O)O)c1=O [B-14, (4-(1-Ethyl-8-(4-fluorophenethyl)-2,6-dioxo-1,2,6,7-tetrahydro-3H-purin-3-yl)butyl)phosphonic acid] |  | > 10000 | 9450 ± 3230 | 99 | 256 to 260 | 81 | 735 ± 131 | 74 | 500 ± 113 | 3 ± 15 | > 10000 |  |  |  |  |  |  |  |  | 
C#CCn1c(=O)c2c(nc(CCc3ccc(OC)cc3)n2CC2CCCC2)n(CCCCP(=O)(O)O)c1=O [B-41, (4-(7-(cyclopentylmethyl)-8-(4-methoxyphenethyl)-2,6-dioxo-1-(prop-2-yn-1-yl)-1,2,6,7-tetra-hydro-3H-purin-3-yl)butyl)phosphonic acid] |  |  |  |  | 111 to 113 |  |  |  |  |  |  |  |  |  |  | 96 | 3.67 ± 1.21 | 57 | 51.4 ± 8.5 | 
C#CCn1c(=O)c2c(nc(CCc3ccc(-c4ccccc4)cc3)n2CC2CCCC2)n(CCCCP(=O)(O)O)c1=O [B-44, (4-(8-(2-([1,1′-biphenyl]-4-yl)ethyl)-7-(cyclopentylmethyl)-2,6-dioxo-1-(prop-2-yn-1-yl)-1,2,6,7-tetrahydro-3H-purin-3-yl)butyl)phosphonic acid] |  |  |  |  | 156 to 158 |  |  |  |  |  |  |  |  |  |  | 43 | 2.12 ± 0.85 |  | > 10000 | 0.0873 ± 0.012

Second part, the molecule after the results:

Emax (human MRGPRX4-83L [1]; Table 1) [%] | EC50 (human MRGPRX4-83L [1]; [5]) [nM] | EC50 (human MRGPRX4-83L [2]; Table 1) [nM] | Emax (human MRGPRX4-83L [2]; Table 1) [%] | melting point [°C] | Emax (MRGPRX4-83S [3]; Table 2) [%] | EC50 (MRGPRX4-83S [3]; Table 2) [nM] | Emax (MRGPRX4-83S [4]; Table 2) [%] | EC50 (MRGPRX4-83S [4]; Table 2) [nM] | value in brackets beside IC50 >10 (human MRGPRX4-83L [1]; Table 1, bracketed value ± spread in IC50 column, not defined, inhibition of 2.6 μM B-16) | IC50 (human MRGPRX4-83L [1]; Table 1, inhibition of the effect of 2.6 μM B-16) [nM] | Emax (human MRGPRX4-83L [1]; Table 4) [%] | EC50 (human MRGPRX4-83L [1]; Table 4) [nM] | EC50 (human MRGPRX4-83L [2]; Table 4) [nM] | Emax (human MRGPRX4-83L [2]; Table 4) [%] | Emax (MRGPRX4-83S [3]; Table 3) [%] | EC50 (MRGPRX4-83S [3]; Table 3) [nM] | Emax (MRGPRX4-83S [4]; Table 3) [%] | EC50 (MRGPRX4-83S [4]; Table 3) [nM] | IC50 (MRGPRX4-83S [4]) [nM] | SMILES
103 | 2140 ± 850 | 80.8 ± 16.8 | 100 | 240 to 242 | 110 | 3.24 ± 1.16 | 109 | 4.69 ± 1.58 |  |  |  |  |  |  |  |  |  |  |  | C#CCn1c(=O)c2[nH]c(CCc3cccc(Br)c3)nc2n(CCCCP(=O)(O)O)c1=O [B-4, (4-(8-(3-Bromophenethyl)-2,6-dioxo-1-(prop-2-yn-1-yl)-1,2,6,7-tetrahydro-3H-purin-3-yl)butyl)phosphonic acid]
103 | 3120 ± 1200 | 397 ± 32 | 108 | 169 to 172 | 101 | 8.94 ± 1.38 | 132 | 10.3 ± 1.3 |  |  |  |  |  |  |  |  |  |  |  | C#CCn1c(=O)c2[nH]c(CCc3ccccc3OC)nc2n(CCCCP(=O)(O)O)c1=O [B-7, (4-(8-(2-Methoxyphenethyl)-2,6-dioxo-1-(prop-2-yn-1-yl)-1,2,6,7-tetrahydro-3H-purin-3-yl)butyl)phosphonic acid]
 |  |  |  | 217 to 219 |  |  |  |  |  |  | 118 | 113 ± 39 | 39.7 ± 9.6 | 62 | 78 | 1.48 ± 0.18 | 92 | 0.284 ± 0.074 |  | C#CCn1c(=O)c2c(nc(CCc3ccccc3F)n2C)n(CCCCP(=O)(O)O)c1=O [B-28, (4-(8-(2-Fluorophenethyl)-7-methyl-2,6-dioxo-1-(prop-2-yn-1-yl)-1,2,6,7-tetrahydro-3H-purin-3-yl)butyl)phosphonic acid]
 |  |  |  | 207 to 209 |  |  |  |  |  |  | 95 | 9.02 ± 1.49 | 2 ± 0.94 | 97 | 110 | 0.146 ± 0.033 | 104 | 0.363 ± 0.109 |  | C#CCn1c(=O)c2c(nc(CCc3c(Cl)cccc3Cl)n2CC)n(CCCCP(=O)(O)O)c1=O [B-34, (4-(8-(2,6-Dichlorophenethyl)-7-ethyl-2,6-dioxo-1-(prop-2-yn-1-yl)-1,2,6,7-tetrahydro-3H-purin-3-yl)butyl)phosphonic acid]
 |  |  |  | 125 to 127 |  |  |  |  |  |  |  |  |  |  | 53 | 10.7 ± 7.1 |  | > 10000 |  | C#CCn1c(=O)c2c(nc(CCc3ccc(C(C)C)cc3)n2CC2CCCC2)n(CCCCP(=O)(O)O)c1=O [B-43, (4-(7-(cyclopentylmethyl)-8-(4-isopropylphenethyl)-2,6-dioxo-1-(prop-2-yn-1-yl)-1,2,6,7-tetra-hydro-3H-purin-3-yl)butyl)phosphonic acid]
 |  |  |  | 88 to 90 |  |  |  |  |  |  |  |  |  |  | 102 | 0.0705 ± 0.0198 | 154 | 0.984 ± 0.054 |  | C#CCn1c(=O)c2c(nc(CCc3ccccc3C)n2C(C)C)n(CCCCP(=O)(O)O)c1=O [B-48, (4-(7-Isopropyl-8-(2-methylphenethyl)-2,6-dioxo-1-(prop-2-yn-1-yl)-1,2,6,7-tetrahydro-3H-purin-3-yl)butyl)phosphonic acid]
 |  |  |  | 105 to 107 |  |  |  |  |  |  |  |  |  |  | 103 | 0.0751 ± 0.0229 | 119 | 0.491 ± 0.192 |  | C#CCn1c(=O)c2c(nc(CCc3ccccc3Br)n2C(C)CC)n(CCCCP(=O)(O)O)c1=O (stereo not shown) [B-49, (4-(8-(2-bromophenethyl)-7-(sec-butyl)-2,6-dioxo-1-(prop-2-yn-1-yl)-1,2,6,7-tetrahydro-3H-purin-3-yl)butyl)phosphonic acid]
 |  |  |  | 192 to 194 |  |  |  |  |  |  |  |  |  |  |  | > 100000 |  | > 10000 |  | C#CCn1c(=O)c2[nH]c(CCc3ccccc3Br)nc2n(CCCCCC(=O)O)c1=O [G-3, 6-(8-(2-Bromophenethyl)-2,6-dioxo-1-(prop-2-yn-1-yl)-1,2,6,7-tetrahydro-3H-purin-3-yl) hexanoic acid]
